Laboratory results published in patent publication US6472348B1, “Pyridone derivatives and herbicides” (Kumiai Chemical Industry Co., Ltd., priority 1996, dated 2002).

Experiments:
wheat (Tr) = assay: Test Example 9: crop plant selectivity by upland field foliage treatment (wheat), phytotoxicity; details: dose 1.6 g ai/10a, 14th day after treatment;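 also: grade of crop injury; 5 = at least 90%; 4 = 70 to 90%; 3 = 50 to 70%; 2 = 30 to 50%; 1 = 10 to 30%; 0 = under 10%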
Protocol: (§1) (Test on Crop Plant Selectivity by Upland Field Foliage Treatment)
(§2) In a plastic pot (surface area: 600 cm^2) filled with sand, wheat (Tr), pale smartweed (Po), slender amaranth (Am), common lambsquarters (Ch) and China jute (Ab) were sown and cultured in a green house for 2 weeks. […] The plants were then cultured in a green house, and the evaluation of the herbicidal effects and phytotoxicity was conducted on the 14th day after the treatment in accordance with the standards as identified in Table 47.

soybean (Gl) = assay: Test Example 6: crop plant selectivity by upland field soil treatment (soybean), phytotoxicity; assay type: in vivo; design: scale not given here; details: dose 6.3 g ai/10a, 21st day after application
Protocol: (§3) (Test on Crop Plant Selectivity by Upland Field Soil Treatment)
(§4) In a plastic pot (surface area: 600 cm^2) filled with sand, soybean (Gl), Diaitaria ciliaris (Di), green foxtail (Se), Johnsongrass (So), pale smartweed (Po), slender amaranth (Am), common lambsquarters (Ch) and China jute (Ab) were sown and covered with soil. […] The plants were then cultured in a green house, and the evaluation of the herbicidal effects and phytotoxicity was conducted on the 21st day after the application in accordance with the standards as identified in Table 47. Symbol—represents “not tested”.

monochoria (Mo) = assay: Test Example 1: herbicidal effects by paddy field soil treatment; assay type: in vivo; details: 100 g of the active ingredient per 10 ares, 21st day after the application, index 0-5 of Table 47;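 also: grade of growth control; 5 = at least 90%; 4 = 70 to 90%; 3 = 50 to 70%; 2 = 30 to 50%; 1 = 10 to 30%; 0 = under 10%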
In short: (§5)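 Herbicidal effect was scored against a graded standard 21 days after treatment. Seeds were sown in puddled, leveled paddy soil flooded to 3 cm depth, and the active ingredient was applied at 100 g per 10 ares before greenhouse culture.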

barnyardgrass (Ec) [1] = assay: as above; assay type: in vivo; details: 100 g of the active ingredient per 10 ares, 21st day after the application, index 0-5 of Table 47
In short: as §5

bulrush (Sc) = assay: as above; assay type: in vivo; details: 100 g of the active ingredient per 10 ares, 21st day after the application, index 0-5 of Table 47;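 also: grade of growth control; 5 = at least 90%; 4 = 70 to 90%; 3 = 50 to 70%; 2 = 30 to 50%; 1 = 10 to 30%; 0 = under 10%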
In short: as §5

[2] = system: common lambsquarters (Ch); assay: Test Example 9: crop plant selectivity by upland field foliage treatment (wheat), herbicidal effects; assay type: in vivo; design: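 grade of growth control; 5 = at least 90%; 4 = 70 to 90%; 3 = 50 to 70%; 2 = 30 to 50%; 1 = 10 to 30%; 0 = under 10%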; details: dose 1.6 g ai/10a, 14th day after treatment
Protocol: as §1, §2

pale smartweed (Po) [3] = assay: as above; assay type: in vivo; design: scale not given here; details: dose 1.6 g ai/10a, 14th day after treatment
Protocol: as §1, §2

China jute (Ab) [4] = assay: as above; assay type: in vivo; design: scale not given here; details: dose 1.6 g ai/10a, 14th day after treatment
Protocol: as §1, §2

slender amaranth (Am) [5] = assay: as above; assay type: in vivo; design: scale not given here; details: dose 1.6 g ai/10a, 14th day after treatment
Protocol: as §1, §2

green foxtail (Se) [6] = assay: Test Example 6: crop plant selectivity by upland field soil treatment (soybean), herbicidal effects; assay type: in vivo; design: scale not given here; details: dose 6.3 g ai/10a, 21st day after application
Protocol: as §3, §4

[7] = system: common lambsquarters (Ch); assay: as above; assay type: in vivo; design: scale not given here; details: dose 6.3 g ai/10a, 21st day after application
Protocol: as §3, §4

pale smartweed (Po) [8] = assay: as above; assay type: in vivo; design: scale not given here; details: dose 6.3 g ai/10a, 21st day after application
Protocol: as §3, §4

China jute (Ab) [9] = assay: as above; assay type: in vivo; design: scale not given here; details: dose 6.3 g ai/10a, 21st day after application
Protocol: as §3, §4

slender amaranth (Am) [10] = assay: as above; assay type: in vivo; design: scale not given here; details: dose 6.3 g ai/10a, 21st day after application
Protocol: as §3, §4

[11] = system: common lambsquarters (Ch); assay: Test Example 2: herbicidal effects by upland field soil treatment; assay type: in vivo; details: 100 g of the active ingredient per 10 ares, 21st day after the application, index 0-5 of Table 47;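 also: grade of growth control; 5 = at least 90%; 4 = 70 to 90%; 3 = 50 to 70%; 2 = 30 to 50%; 1 = 10 to 30%; 0 = under 10%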
Description: (§6) (Test on Herbicidal Effects by Upland Field Soil Treatment)

Digitaria ciliaris (Di) = assay: as above; assay type: in vivo; details: 100 g of the active ingredient per 10 ares, 21st day after the application, index 0-5 of Table 47
Description: as §6

pale smartweed (Po) [12] = assay: as above; assay type: in vivo; details: 100 g of the active ingredient per 10 ares, 21st day after the application, index 0-5 of Table 47
Description: as §6

barnyardgrass (Ec) [13] = assay: as above; assay type: in vivo; details: 100 g of the active ingredient per 10 ares, 21st day after the application, index 0-5 of Table 47
Description: as §6

rice flatsedge (Ci) [14] = assay: as above; assay type: in vivo; details: 100 g of the active ingredient per 10 ares, 21st day after the application, index 0-5 of Table 47
Description: as §6

slender amaranth (Am) [15] = assay: as above; assay type: in vivo; details: 100 g of the active ingredient per 10 ares, 21st day after the application, index 0-5 of Table 47
Description: as §6

corn (Ze) = assay: Test Example 7: crop plant selectivity by upland field soil treatment (corn), phytotoxicity; assay type: in vivo; design: scale not given here; details: dose 6.3 g ai/10a, 21st day after application
Protocol: as §3
(§7) In a plastic pot (surface area: 600 cm^2) filled with sand, corn (Ze), green foxtail (Se), pale smartweed (Po), slender amaranth (Am), common lambsquarters (Ch) and China jute (Ab) were sown and covered with soil. […] The plants were then cultured in a green house, and the evaluation of the herbicidal effects and phytotoxicity was conducted on the 21st day after the application in accordance with the standards as identified in Table 47.

[16] = system: common lambsquarters (Ch); assay: Test Example 3: herbicidal effects by upland field foliage treatment; assay type: in vivo; design: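 grade of growth control; 5 = at least 90%; 4 = 70 to 90%; 3 = 50 to 70%; 2 = 30 to 50%; 1 = 10 to 30%; 0 = under 10%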; details: 100 g of the active ingredient per 10 ares, evaluated on the 14th day after treatment
In short: (§8)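 Readout: visual herbicidal rating per defined standards, 14th day after treatment. Plants sown in sand (pot area 120 cm^2), soil-covered, greenhouse-cultured for 2 weeks prior to foliage application, then greenhouse-grown until scoring.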

Diaitaria ciliaris (Di) = assay: as above; assay type: in vivo; design: scale not given here; details: 100 g of the active ingredient per 10 ares, evaluated on the 14th day after treatment
In short: as §8

pale smartweed (Po) [17] = assay: as above; assay type: in vivo; design: scale not given here; details: 100 g of the active ingredient per 10 ares, evaluated on the 14th day after treatment
In short: as §8

barnyardgrass (Ec) [18] = assay: as above; assay type: in vivo; design: scale not given here; details: 100 g of the active ingredient per 10 ares, evaluated on the 14th day after treatment
In short: as §8

rice flatsedge (Ci) [19] = assay: as above; assay type: in vivo; design: scale not given here; details: 100 g of the active ingredient per 10 ares, evaluated on the 14th day after treatment
In short: as §8

slender amaranth (Am) [20] = assay: as above; assay type: in vivo; design: scale not given here; details: 100 g of the active ingredient per 10 ares, evaluated on the 14th day after treatment
In short: as §8

green foxtail (Se) [21] = assay: Test Example 7: crop plant selectivity by upland field soil treatment (corn), herbicidal effects; assay type: in vivo; design: scale not given here; details: dose 6.3 g ai/10a, 21st day after application
Protocol: as §3, §7

[22] = system: common lambsquarters (Ch); assay: as above; assay type: in vivo; design: scale not given here; details: dose 6.3 g ai/10a, 21st day after application
Protocol: as §3, §7

pale smartweed (Po) [23] = assay: as above; assay type: in vivo; design: scale not given here; details: dose 6.3 g ai/10a, 21st day after application
Protocol: as §3, §7

China jute (Ab) [24] = assay: as above; assay type: in vivo; design: scale not given here; details: dose 6.3 g ai/10a, 21st day after application
Protocol: as §3, §7

slender amaranth (Am) [25] = assay: as above; assay type: in vivo; design: scale not given here; details: dose 6.3 g ai/10a, 21st day after application
Protocol: as §3, §7

green foxtail (Se) [26] = assay: Test Example 4: crop plant selectivity by upland field soil treatment (cotton), herbicidal effects; assay type: in vivo; design: scale not given here; details: dose 6.3 g ai/10 a, evaluated 21st day after application
Protocol: as §3
(§9) In a plastic pot (surface area: 600 cm^2) filled with sand, cotton (Go), Diaitaria ciliaris (Di), green foxtail (Se), pale smartweed (Po), slender amaranth (Am), common lambsquarters (Ch) and China jute (Ab) were sown and covered with soil. […] The plants were then cultured in a green house, and the evaluation of the herbicidal effects and phytotoxicity was conducted on the 21st day after the application in accordance with the standards as identified in Table 47. Symbol—represents “not tested”.

[27] = system: common lambsquarters (Ch); assay: as above; assay type: in vivo; design: scale not given here; details: dose 6.3 g ai/10 a, evaluated 21st day after application
Protocol: as §3, §9

pale smartweed (Po) [28] = assay: as above; assay type: in vivo; design: scale not given here; details: dose 6.3 g ai/10 a, evaluated 21st day after application
Protocol: as §3, §9

China jute (Ab) [29] = assay: as above; assay type: in vivo; design: scale not given here; details: dose 6.3 g ai/10 a, evaluated 21st day after application
Protocol: as §3, §9

slender amaranth (Am) [30] = assay: as above; assay type: in vivo; design: scale not given here; details: dose 6.3 g ai/10 a, evaluated 21st day after application
Protocol: as §3, §9

cotton (Go) = assay: Test Example 4: crop plant selectivity by upland field soil treatment (cotton), phytotoxicity; assay type: in vivo; design: scale not given here; details: dose 6.3 g ai/10 a, evaluated 21st day after application
Protocol: as §3, §9

With `C#CC(CC)Oc1cc(-c2ccc(C(F)(F)F)n(C)c2=O)c(F)cc1Cl` (racemic) [1-122] the “Phytotoxicity Tr” value (wheat (Tr)) was 2, the “Phytotoxicity Gl” value (soybean (Gl)) was 2 and the “Herbicidal effects Mo” value (monochoria (Mo)) was 5. The “Herbicidal effects Ec” value (barnyardgrass (Ec) [1]) was 5, the “Herbicidal effects Sc” value (bulrush (Sc)) was 5 and the “Herbicidal effects Ch” value [2] was 5. For the same compound, the “Herbicidal effects Po” value (pale smartweed (Po) [3]) was 5, the “Herbicidal effects Ab” value (China jute (Ab) [4]) was 5 and the “Herbicidal effects Am” value (slender amaranth (Am) [5]) was 5. The “Herbicidal effects Se” value (green foxtail (Se) [6]) was 5, the “Herbicidal effects Ch” value [7] was 5 and the “Herbicidal effects Po” value (pale smartweed (Po) [8]) was 5. The “Herbicidal effects Ab” value (China jute (Ab) [9]) was 5, the “Herbicidal effects Am” value (slender amaranth (Am) [10]) was 5 and the “Herbicidal effects Ch” value [11] was 5. For the same compound, the “Herbicidal effects Di” value (Digitaria ciliaris (Di)) was 5, the “Herbicidal effects Po” value (pale smartweed (Po) [12]) was 5 and the “Herbicidal effects Ec” value (barnyardgrass (Ec) [13]) was 5. The “Herbicidal effects Ci” value (rice flatsedge (Ci) [14]) was 5, the “Herbicidal effects Am” value (slender amaranth (Am) [15]) was 5 and the “Phytotoxicity Ze” value (corn (Ze)) was 1. The “Herbicidal effects Ch” value [16] was 5, the “Herbicidal effects Di” value (Diaitaria ciliaris (Di)) was 5 and the “Herbicidal effects Po” value (pale smartweed (Po) [17]) was 5. For the same compound, the “Herbicidal effects Ec” value (barnyardgrass (Ec) [18]) was 5, the “Herbicidal effects Ci” value (rice flatsedge (Ci) [19]) was 5 and the “Herbicidal effects Am” value (slender amaranth (Am) [20]) was 5. For the same compound, the “Herbicidal effects Se” value (green foxtail (Se) [21]) was 5, the “Herbicidal effects Ch” value [22] was 5 and the “Herbicidal effects Po” value (pale smartweed (Po) [23]) was 5. For the same compound, the “Herbicidal effects Ab” value (China jute (Ab) [24]) was 5, the “Herbicidal effects Am” value (slender amaranth (Am) [25]) was 5 and the “Herbicidal effects Se” value (green foxtail (Se) [26]) was 5. For the same compound, the “Herbicidal effects Ch” value [27] was 5, the “Herbicidal effects Po” value (pale smartweed (Po) [28]) was 5 and the “Herbicidal effects Ab” value (China jute (Ab) [29]) was 5. For the same compound, the “Herbicidal effects Am” value (slender amaranth (Am) [30]) was 5 and the “Phytotoxicity Go” value (cotton (Go)) was 0.
